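Test compounds were applied to cells in 96-well plates for 48 hours at 5 doses. GI50: concentration for 50% inhibition of growth. At the TGI there is no net growth.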
Columns and labels:
Experiment in all cases: NCI anticancer screen, dose series, 48 h; in the data active means GI50 below about 0.43 µM; inactive means the rest
NCI-H522 lung = tested on: NCI-H522 lung
KM12 colon = tested on: KM12 colon
HS 578T breast = tested on: HS 578T breast
M14 melanoma = tested on: M14 melanoma
PC-3 prostate = tested on: PC-3 prostate
MOLT-4 leukemia = tested on: MOLT-4 leukemia
A498 renal = tested on: A498 renal
OVCAR-3 ovarian = tested on: OVCAR-3 ovarian
NCI-H23 lung = tested on: NCI-H23 lung
A549 NSCLC = tested on: A549 NSCLC
SK-OV-3 ovarian = tested on: SK-OV-3 ovarian
U251 CNS = tested on: U251 CNS
DU-145 prostate = tested on: DU-145 prostate
HCT-15 colon = tested on: HCT-15 colon
OVCAR-5 ovarian = tested on: OVCAR-5 ovarian
LOX IMVI melanoma = tested on: LOX IMVI melanoma
SF-295 CNS = tested on: SF-295 CNS
MALME-3M melanoma = tested on: MALME-3M melanoma
NCI/ADR-RES ovarian = tested on: NCI/ADR-RES ovarian
OVCAR-8 ovarian = tested on: OVCAR-8 ovarian
CAKI-1 renal = tested on: CAKI-1 renal
ACHN renal = tested on: ACHN renal
786-0 renal = tested on: 786-0 renal
SW-620 colon = tested on: SW-620 colon
RPMI-8226 leukemia = tested on: RPMI-8226 leukemia
HL-60(TB) leukemia = tested on: HL-60(TB) leukemia
MDA-MB-231 breast = tested on: MDA-MB-231 breast
NCI-H460 lung = tested on: NCI-H460 lung
OVCAR-4 ovarian = tested on: OVCAR-4 ovarian
HCT-116 colon = tested on: HCT-116 colon
UACC-62 melanoma = tested on: UACC-62 melanoma
SN12C renal = tested on: SN12C renal
HCC-2998 colon = tested on: HCC-2998 colon
MCF7 breast = tested on: MCF7 breast
RXF 393 renal = tested on: RXF 393 renal
HT29 colon = tested on: HT29 colon
SK-MEL-2 melanoma = tested on: SK-MEL-2 melanoma
T-47D breast = tested on: T-47D breast
COLO 205 colon = tested on: COLO 205 colon
EKVX NSCLC = tested on: EKVX NSCLC
IGROV1 ovarian = tested on: IGROV1 ovarian
UACC-257 melanoma = tested on: UACC-257 melanoma
K-562 leukemia = tested on: K-562 leukemia
SK-MEL-5 melanoma = tested on: SK-MEL-5 melanoma
HOP-62 NSCLC = tested on: HOP-62 NSCLC
TK-10 renal = tested on: TK-10 renal
SNB-19 CNS = tested on: SNB-19 CNS
CCRF-CEM leukemia = tested on: CCRF-CEM leukemia
UO-31 renal = tested on: UO-31 renal
MDA-MB-435 = tested on: MDA-MB-435
BT-549 breast = tested on: BT-549 breast
SNB-75 CNS = tested on: SNB-75 CNS
SR leukemia = tested on: SR leukemia
SF-539 CNS = tested on: SF-539 CNS
SK-MEL-28 melanoma = tested on: SK-MEL-28 melanoma
SF-268 CNS = tested on: SF-268 CNS
NCI-H226 lung = tested on: NCI-H226 lung

CN1CCN(C2=NC(=O)/C(=C\c3ccc(N(C)C)cc3)S2)CC1
inactive: GI50 (NCI-H522 lung) > 100 µM | GI50 (KM12 colon) > 100 µM | GI50 (HS 578T breast) > 100 µM | GI50 (M14 melanoma) 3.79 µM | GI50 (PC-3 prostate) > 100 µM | GI50 (MOLT-4 leukemia) 42.2 µM | GI50 (A498 renal) > 100 µM | GI50 (OVCAR-3 ovarian) > 100 µM | GI50 (NCI-H23 lung) > 100 µM | GI50 (A549 NSCLC) > 100 µM | GI50 (SK-OV-3 ovarian) > 100 µM | GI50 (U251 CNS) > 100 µM | GI50 (DU-145 prostate) > 100 µM | GI50 (HCT-15 colon) > 100 µM | GI50 (OVCAR-5 ovarian) > 100 µM | GI50 (LOX IMVI melanoma) 75.1 µM | GI50 (SF-295 CNS) > 100 µM | GI50 (MALME-3M melanoma) > 100 µM | GI50 (NCI/ADR-RES ovarian) > 100 µM | GI50 (OVCAR-8 ovarian) > 100 µM | GI50 (CAKI-1 renal) > 100 µM | GI50 (ACHN renal) > 100 µM | GI50 (786-0 renal) > 100 µM | GI50 (SW-620 colon) > 100 µM | GI50 (RPMI-8226 leukemia) 32.5 µM | GI50 (HL-60(TB) leukemia) 46 µM | GI50 (MDA-MB-231 breast) 74.5 µM | GI50 (NCI-H460 lung) > 100 µM | GI50 (OVCAR-4 ovarian) > 100 µM | GI50 (HCT-116 colon) > 100 µM | GI50 (UACC-62 melanoma) 91.7 µM | GI50 (SN12C renal) > 100 µM | GI50 (HCC-2998 colon) > 100 µM | GI50 (MCF7 breast) > 100 µM | GI50 (RXF 393 renal) 45.4 µM | GI50 (HT29 colon) 39.5 µM | GI50 (SK-MEL-2 melanoma) > 100 µM | GI50 (T-47D breast) 36.7 µM | GI50 (COLO 205 colon) > 100 µM | GI50 (EKVX NSCLC) > 100 µM | GI50 (IGROV1 ovarian) 72.5 µM | GI50 (UACC-257 melanoma) > 100 µM | GI50 (K-562 leukemia) > 100 µM | GI50 (SK-MEL-5 melanoma) > 100 µM | GI50 (HOP-62 NSCLC) > 100 µM | GI50 (TK-10 renal) > 100 µM | GI50 (SNB-19 CNS) > 100 µM | GI50 (CCRF-CEM leukemia) 38.4 µM | GI50 (UO-31 renal) 71 µM | GI50 (MDA-MB-435) > 100 µM | GI50 (BT-549 breast) > 100 µM | GI50 (SNB-75 CNS) 48.2 µM | GI50 (SR leukemia) 57.4 µM | GI50 (SF-539 CNS) > 100 µM | GI50 (SK-MEL-28 melanoma) > 100 µM | GI50 (SF-268 CNS) > 100 µM | GI50 (NCI-H226 lung) > 100 µM
> 100 µM: TGI (NCI-H522 lung) | TGI (KM12 colon) | TGI (HS 578T breast) | TGI (M14 melanoma) | TGI (PC-3 prostate) | TGI (MOLT-4 leukemia) | TGI (A498 renal) | TGI (OVCAR-3 ovarian) | TGI (NCI-H23 lung) | TGI (A549 NSCLC) | TGI (SK-OV-3 ovarian) | TGI (U251 CNS) | TGI (DU-145 prostate) | TGI (HCT-15 colon) | TGI (OVCAR-5 ovarian) | TGI (LOX IMVI melanoma) | TGI (SF-295 CNS) | TGI (MALME-3M melanoma) | TGI (NCI/ADR-RES ovarian) | TGI (OVCAR-8 ovarian) | TGI (CAKI-1 renal) | TGI (ACHN renal) | TGI (786-0 renal) | TGI (SW-620 colon) | TGI (RPMI-8226 leukemia) | TGI (HL-60(TB) leukemia) | TGI (MDA-MB-231 breast) | TGI (NCI-H460 lung) | TGI (OVCAR-4 ovarian) | TGI (HCT-116 colon) | TGI (UACC-62 melanoma) | TGI (SN12C renal) | TGI (HCC-2998 colon) | TGI (MCF7 breast) | TGI (RXF 393 renal) | TGI (HT29 colon) | TGI (SK-MEL-2 melanoma) | TGI (T-47D breast) | TGI (COLO 205 colon) | TGI (EKVX NSCLC) | TGI (IGROV1 ovarian) | TGI (UACC-257 melanoma) | TGI (K-562 leukemia) | TGI (SK-MEL-5 melanoma) | TGI (HOP-62 NSCLC) | TGI (TK-10 renal) | TGI (SNB-19 CNS) | TGI (CCRF-CEM leukemia) | TGI (UO-31 renal) | TGI (MDA-MB-435) | TGI (BT-549 breast) | TGI (SNB-75 CNS) | TGI (SR leukemia) | TGI (SF-539 CNS) | TGI (SK-MEL-28 melanoma) | TGI (SF-268 CNS) | TGI (NCI-H226 lung)
